Results taken from ChEMBL document CHEMBL1201862, “PubChem BioAssay data set” (2004).
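In this assay, cells in 96-well plates receive the compound at five concentrations for 48 hours. Endpoints are linearly interpolated between the surrounding concentrations. GI50: concentration for 50% inhibition of growth.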 The source made the active and inactive calls. No stated cut-off is given here; in the data, active = GI50 up to about 1.1 µM and inactive = higher.

tested on: BT-549; assay: DTP human tumour cell line panel, 48 h

| Structure (SMILES) | GI50 |
| --- | --- |
| COC1=CC(=O)c2c(c(COP(=O)(N(C)CCBr)N(C)CCBr)cn2C)C1=O | 0.078 µM (active) |
| Oc1ccc(Cl)cc1Cc1cc(Cl)cc(Cc2cc(Cl)ccc2O)c1O | 2.79 µM (inactive) |
| O=C(O)c1ccc(Oc2nc3ccccc3s2)cc1 | > 100 µM (inactive) |
| Cc1c(/N=C/C=C/c2ccccc2)c(=O)n(-c2ccccc2)n1C | 22.8 µM (inactive) |
| Cc1sc2nc(-c3ccc([N+](=O)[O-])cc3)c(/C=N/N=C(N)N)n2c1C | 1.41 µM (inactive) |
| c1ccc(/C(=N/Nc2ccccn2)c2ncccn2)cc1 | 11.5 µM (inactive) |
| COC(=O)/C=C1\C(=O)C=C2[C@@H]3C[C@H]4C[C@H](CC[C@@]4(C)N21)C3(C)NC(C)=O (stereo partly specified) | 11.1 µM (inactive) |
| COC(=O)c1cn(CCCC(=O)O)nn1 | > 100 µM (inactive) |
| O=C(N/N=C\c1ccccc1)Nc1cccc2ccccc12 | 31 µM (inactive) |
| CCC(C)C(=O)OC1C(=O)OC2CC3C(C)=CC(=O)C(O)C3(C)C3C4(O)OCC23C1C(C)C4O (stereo unspecified) | < 0.017 µM (active) |
| COc1ccc(-c2cc(-c3ccncc3)nc(N)c2-c2ccc(F)cc2)cc1 | 37.4 µM (inactive) |
| CNC1=C(C)C(=O)C(O)=C([C@H](C)CCC=C(C)C)C1=O | 52.2 µM (inactive) |
| CCOC(=O)c1cn(C)c(=S)n2c1nc1ccccc12 | 97.3 µM (inactive) |
| COc1ccc2cc(Oc3ccc(Cl)cc3)c(=O)oc2c1 | > 100 µM (inactive) |
| CCN(CC)c1ccc2cc(C(=O)Nc3ccccc3OC)c(=N)oc2c1 | 26.6 µM (inactive) |
| O=C(CCO)OCCCCCC/C=C\CCCCCC/C=C\CCCCCCCCOC(=O)CCO | 19 µM (inactive) |
| CC(C)OP(=O)(OC(C)C)/C(C#N)=C/c1c[nH]c2ccccc12 | 31 µM (inactive) |
| O=C(c1ccco1)N(Cc1cccnc1)C(=S)N(Cc1cccnc1)C(=O)c1ccco1 | 23.2 µM (inactive) |
| C=C(Cl)c1c(OC)cccc1OCc1ccccc1 | > 100 µM (inactive) |
| CCOC(=O)C12OC(OCC)(CC1(OCC)OCC)C1(CC1)C2=O (stereo unspecified) | > 100 µM (inactive) |
| CCOC(=O)NC(Nc1cc(Cl)ccc1OC)(C(F)(F)F)C(F)(F)F | > 100 µM (inactive) |

| Structure (SMILES) | GI50 |
| --- | --- |
| COc1cc(C2=C(C#N)C(N)OC3=C2COc2ccccc23)cc(OC)c1OC (stereo unspecified) | 42.8 µM (inactive) |
| S=C1SC(=N\c2ccccc2)/C(=N/c2ccccc2)N1c1ccc2ccccc2c1 | > 100 µM (inactive) |
| O=C(c1ccco1)N(C(=O)N1CCC(c2ccccc2)CC1)c1ccccc1 | 33.7 µM (inactive) |
| CCN1C(NN)=NS(=O)(=O)c2ccccc21 | > 100 µM (inactive) |
| CCOC(=O)Cc1ccc(Nc2nc3cc(C(F)(F)F)ccc3nc2C(=O)OCC)cc1 | 77.1 µM (inactive) |
| CCOC(=O)c1[nH]cc(C)c1-c1ccn(-c2ccccc2)c1 | 43.4 µM (inactive) |
| COc1cccc2c1OCC1Cc3ccccc3OC21 (stereo unspecified) | 19.1 µM (inactive) |
| CCCCOCCOCCOC1=CC(=O)c2c(O)ccc(O)c2C1=O | 1.77 µM (inactive) |
| N#CCCN(CCCN(C(=O)N(c1ccccc1)c1ccccc1)c1ccccc1)C(=O)Nc1ccccc1 | > 100 µM (inactive) |
| O=[N+]([O-])c1ccc(/C=N\N=c2/ccc([N+](=O)[O-])c[nH]2)cc1 | > 100 µM (inactive) |
| O=C1CC(n2ccnc2)c2c(Cl)sc(Cl)c21 (stereo unspecified) | 15.3 µM (inactive) |
| CCOC(=O)Oc1cc2c(ccn2C)c2c1c1ccccc1n2C(=O)OCC | > 100 µM (inactive) |
| COC(=O)c1ccc(/C=C/C2=CC(=O)C=CC2=O)cc1 | 5.81 µM (inactive) |
| CC1=C(C(=O)OC2CC3CCC2(C)C3(C)C)C2Nc3ccccc3N(C)C2O1 (stereo unspecified) | 2.34 µM (inactive) |
| O=C(Nc1ccccc1)c1cc(S(=O)(=O)n2ccnc2O)c(S)cc1Cl | > 100 µM (inactive) |
| CCCCCCCCCCCCCCCCOc1ccc(/C=C/C2=[N+](CCCl)CCO2)cc1 | > 100 µM (inactive) |
| C[C@H]1SC(c2ccc(Cl)cc2Cl)N(NC(=O)c2ccncc2)C1=O (stereo partly specified) | 36.6 µM (inactive) |
| C[N+](C)(CCCCCC[N+](C)(C)CCCN1C(=O)c2cccc3cccc(c23)C1=O)CCCN1C(=O)c2cccc3cccc(c23)C1=O | > 100 µM (inactive) |
| O=C(CCN1CCCCC1)Nc1ccc2sc3ccccc3c(=O)c2n1 | 15.5 µM (inactive) |
| O=C(NC1CCN(Cc2ccccc2)CC1)c1ccccc1I | 51.1 µM (inactive) |
